Laboratory results reported in PubChem BioAssay AID296 (DTP/NCI, 2004).
Several values for one entry are separate records, joined by “and”; a condition that tells them apart may be missing. Equal entries are not always repeated. Records with an inconclusive call do not appear.

System: MX-1 breast xenograft, nude mice, tumor weight T/C
Experiment: NCI In Vivo Anticancer Drug Screen. Data for tumor model Human Mammary Carcinoma MX-1 Xenograft (intrarenal inoculation) in NU/NU Swiss (nude) mice
Settings: endpoint: mean tumor weight change, higher = larger tumour
In short: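 Read-out: treated (T) over vehicle control (C) ratio of survival or tumor size. Dosing in animals carrying the transplanted tumor.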

Question: Which results are given for C=C[Si]12OCCN(CCO1)CCO2?
Answer: T/C (dose: 300.0 mg/kg/injection, schedule: Q04DX003 (sc), vehicle: Klucel (hydroxypropylcellulose) (HPC)): 87 % of control; T/C (dose: 600.0 mg/kg/injection, schedule: Q04DX003 (sc), vehicle: Klucel (hydroxypropylcellulose) (HPC)): 79 % of control; T/C (dose: 1200.0 mg/kg/injection, schedule: Q04DX003 (sc), vehicle: Klucel (hydroxypropylcellulose) (HPC)): 106 % of control; T/C (dose: 2400.0 mg/kg/injection, schedule: Q04DX003 (sc), vehicle: Klucel (hydroxypropylcellulose) (HPC)): 89 % of control

Question: Which results are given for O=Cc1ccc([N+](=O)[O-])s1?
Answer: T/C (dose: 25.0 mg/kg/injection, schedule: Q01DX010 (sc), vehicle: saline with Tween-80): 90 % of control; T/C (dose: 50.0 mg/kg/injection, schedule: Q01DX010 (sc), vehicle: saline with Tween-80): 89 % of control; T/C (dose: 100.0 mg/kg/injection, schedule: Q01DX010 (sc), vehicle: saline with Tween-80): 56 % of control

Question: With CNC(=O)c1cccc2c(Nc3ccc(NS(C)(=O)=O)cc3OC)c3cccc(C)c3nc12 as the compound, how does the T/C (dose: 50.0 mg/kg/injection, schedule: Q04DX003 (sc), vehicle: water) read?
Answer: 111 % of control

Question: And the T/C (dose: 100.0 mg/kg/injection, schedule: Q04DX003 (sc), vehicle: water)?
Answer: 73 % of control

Question: What about the T/C (dose: 200.0 mg/kg/injection, schedule: Q04DX003 (sc), vehicle: water) of the same compound?
Answer: 31 % of control

Question: With CN(C)CCCNc1c2ccccc2nc2cccc([N+](=O)[O-])c12 as the compound, how does the T/C (dose: 0.37 mg/kg/injection, schedule: Q04DX003 (sc), vehicle: saline) read?
Answer: 78 % of control

Question: C[CH2][Ge]([CH2]C)[CH2]C.C[CH2][Ge]([CH2]C)[CH2]C.C[CH2][Ge]([CH2]C)[O][Ge]([CH2]C)[CH2]C was tested. Which T/C (dose: 150.0 mg/kg/injection, schedule: Q04DX003 (sc), vehicle: saline with Tween-80) did it give?
Answer: 109 % of control

Question: What about the T/C (dose: 300.0 mg/kg/injection, schedule: Q04DX003 (sc), vehicle: saline with Tween-80) of the same compound?
Answer: 79 % of control

Question: What does the source list for C=C(NC(=O)C(=C)NC(=O)c1csc(C2=NC3c4csc(n4)C4NC(=O)c5csc(n5)C(C(C)(O)C(C)O)NC(=O)C5CSC(=N5)/C(=C/C)NC(=O)C(C(C)O)NC(=O)c5csc(n5)C3(CC2)NC(=O)C(C)NC(=O)C(=C)NC(=O)C(C)NC(=O)C(C(C)CC)NC2C=Cc3c(C(C)O)cc(nc3C2O)C(=O)OC4C)n1)C(N)=O (stereo unspecified)?
Answer: T/C (dose: 400.0 mg/kg/injection, schedule: Q01DX010 (sc), vehicle: Klucel (hydroxypropylcellulose) (HPC)): 73 % of control; T/C (dose: 800.0 mg/kg/injection, schedule: Q01DX010 (sc), vehicle: Klucel (hydroxypropylcellulose) (HPC)): 98 % of control; T/C (dose: 1600.0 mg/kg/injection, schedule: Q01DX010 (sc), vehicle: Klucel (hydroxypropylcellulose) (HPC)): 81 % of control; T/C (dose: 3200.0 mg/kg/injection, schedule: Q01DX010 (sc), vehicle: Klucel (hydroxypropylcellulose) (HPC)): 117 % of control

Question: How did the T/C (dose: 150.0 mg/kg/injection, schedule: Q04DX003 (sc), vehicle: distilled water + Tween-80 + alcohol) turn out when Cc1cc(NCCCCCCCCNc2cc(C)nc3cc(N(C)C)ccc23)c2ccc(N(C)C)cc2n1 was run?
Answer: 67 % of control

Question: What about the T/C (dose: 300.0 mg/kg/injection, schedule: Q04DX003 (sc), vehicle: distilled water + Tween-80 + alcohol) of the same compound?
Answer: 74 % of control

Question: And the T/C (dose: 600.0 mg/kg/injection, schedule: Q04DX003 (sc), vehicle: distilled water + Tween-80 + alcohol)?
Answer: 43 % of control

Question: What about the T/C (dose: 1200.0 mg/kg/injection, schedule: Q04DX003 (sc), vehicle: distilled water + Tween-80 + alcohol) of the same compound?
Answer: 71 % of control

Question: How did the T/C (dose: 0.15 mg/kg/injection, schedule: Q04DX003 (sc), vehicle: saline) turn out when COC(=O)C[C@](O)(CCC(C)(C)O)C(=O)O[C@@H]1C(OC)=C[C@]23CCCN2CCc2cc4c(cc2[C@H]13)OCO4 was run?
Answer: 123 % of control

Question: And the T/C (dose: 0.31 mg/kg/injection, schedule: Q04DX003 (sc), vehicle: saline)?
Answer: 93 % of control

Question: What about the T/C (dose: 0.63 mg/kg/injection, schedule: Q04DX003 (sc), vehicle: saline) of the same compound?
Answer: 119 % of control

Question: What about the T/C (dose: 1.25 mg/kg/injection, schedule: Q04DX003 (sc), vehicle: saline) of the same compound?
Answer: 97 % of control

Question: Which results are given for C[C@H]1C[C@@H]2[C@H]([C@@H](O)C[C@@]3(C)[C@H]2CC[C@]3(O)C(=O)CO)[C@@]2(C)C=CC(=O)C=C12?
Answer: T/C (dose: 200.0 mg/kg/injection, schedule: Q04DX003 (sc), vehicle: Klucel (hydroxypropylcellulose) (HPC)): 33 % of control; T/C (dose: 400.0 mg/kg/injection, schedule: Q04DX003 (sc), vehicle: Klucel (hydroxypropylcellulose) (HPC)): 31 % of control; T/C (dose: 800.0 mg/kg/injection, schedule: Q04DX003 (sc), vehicle: Klucel (hydroxypropylcellulose) (HPC)): 30 % of control; T/C (dose: 1600.0 mg/kg/injection, schedule: Q04DX003 (sc), vehicle: Klucel (hydroxypropylcellulose) (HPC)): 13 % of control

Question: Which T/C (dose: 100.0 mg/kg/injection, schedule: Q04DX003 (sc), vehicle: saline with Tween-80) does the source give for CCN(CC)CCOC(=O)Cc1cccc2c(=O)cc(-c3ccccc3)oc12 here?
Answer: 107 % of control

Question: And the T/C (dose: 200.0 mg/kg/injection, schedule: Q04DX003 (sc), vehicle: saline with Tween-80)?
Answer: 102 % of control

Question: With Nc1ccc2nc3ccc(N)cc3[n+](-c3ccccc3)c2c1 as the compound, how does the T/C (dose: 18.0 mg/kg/injection, schedule: Q04DX003 (sc), vehicle: saline) read?
Answer: 65 % of control

Question: What about the T/C (dose: 36.0 mg/kg/injection, schedule: Q04DX003 (sc), vehicle: saline) of the same compound?
Answer: 119 % of control

Question: And the T/C (dose: 72.0 mg/kg/injection, schedule: Q04DX003 (sc), vehicle: saline)?
Answer: 72 % of control

Question: And the T/C (dose: 144.0 mg/kg/injection, schedule: Q04DX003 (sc), vehicle: saline)?
Answer: 59 % of control

Question: For COC12C(COC(N)=O)C3=C(C(=O)C(C)=C(N)C3=O)N1CC1C2N1C (stereo unspecified), which T/C (dose: 8.0 mg/kg/injection, schedule: Q01DX010 (sc), vehicle: saline) is on record?
Answer: -96 % of control and -95 % of control
